Experimental data reported in publication PMC7048932, “Examining sterically demanding lysine analogs for histone lysine methyltransferase catalysis” (Scientific Reports, 2020).

Molecular target: T1, GLP (Homo sapiens, UniProt Q9H9B1)
T1 construct: His6 (N); made in house; host or cells: E. coli BL21 (DE3)pLysS-rosetta
T1 sequence (Q9H9B1 1-1298): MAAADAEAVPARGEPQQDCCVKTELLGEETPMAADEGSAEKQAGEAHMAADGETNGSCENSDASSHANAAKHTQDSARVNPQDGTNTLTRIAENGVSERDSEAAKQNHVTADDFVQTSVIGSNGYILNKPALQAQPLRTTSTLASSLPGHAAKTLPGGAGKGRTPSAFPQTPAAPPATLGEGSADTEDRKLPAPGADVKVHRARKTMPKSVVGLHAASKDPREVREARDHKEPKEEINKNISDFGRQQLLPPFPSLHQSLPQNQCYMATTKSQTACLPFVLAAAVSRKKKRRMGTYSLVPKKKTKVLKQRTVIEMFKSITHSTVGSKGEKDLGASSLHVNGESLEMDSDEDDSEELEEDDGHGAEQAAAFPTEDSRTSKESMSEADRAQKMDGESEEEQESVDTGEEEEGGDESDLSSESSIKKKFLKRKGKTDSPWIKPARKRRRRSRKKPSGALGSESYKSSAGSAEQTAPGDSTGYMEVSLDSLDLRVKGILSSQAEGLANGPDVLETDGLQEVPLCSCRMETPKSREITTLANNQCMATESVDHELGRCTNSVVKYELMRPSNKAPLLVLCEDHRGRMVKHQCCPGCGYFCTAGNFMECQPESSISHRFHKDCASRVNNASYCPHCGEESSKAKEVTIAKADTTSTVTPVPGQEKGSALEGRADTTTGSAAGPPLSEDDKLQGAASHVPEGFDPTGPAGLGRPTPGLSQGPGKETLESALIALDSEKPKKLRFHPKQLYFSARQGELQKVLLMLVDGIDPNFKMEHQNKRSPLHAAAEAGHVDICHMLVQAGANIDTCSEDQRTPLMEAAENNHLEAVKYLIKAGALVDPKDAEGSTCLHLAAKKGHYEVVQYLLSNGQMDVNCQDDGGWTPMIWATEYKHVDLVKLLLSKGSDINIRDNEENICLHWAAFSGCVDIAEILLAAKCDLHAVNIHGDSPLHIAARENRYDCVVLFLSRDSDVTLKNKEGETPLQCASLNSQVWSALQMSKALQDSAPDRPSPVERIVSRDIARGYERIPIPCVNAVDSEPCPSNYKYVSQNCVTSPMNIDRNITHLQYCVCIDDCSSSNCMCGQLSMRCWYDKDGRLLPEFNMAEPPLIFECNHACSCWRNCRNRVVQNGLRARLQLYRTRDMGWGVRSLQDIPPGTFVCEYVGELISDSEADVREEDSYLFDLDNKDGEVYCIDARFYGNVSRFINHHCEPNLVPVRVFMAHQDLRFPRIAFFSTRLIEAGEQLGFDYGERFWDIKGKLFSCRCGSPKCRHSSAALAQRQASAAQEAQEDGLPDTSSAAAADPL
Test: NMR assay of GLP-catalyzed methylation of H3K9 peptides
Assay type: biochemical
Conditions: peptide 400 µM, GLP 8 µM, SAM 2 mM, 50 mM Tris-d11.HCl pD 8.0, 1 h, 37 °C

ARTKQTAR(Kba9)STGGKA [H3Kba9]
GLP-catalyzed methylation by 1H NMR / 1H-13C HSQC, result in words: not methylated
